Test results from PubChem BioAssay AID212 (DTP/NCI, 2004).
“And” between values parts separate entries of the source, which are not always exact repeats. Equal values may be shown once. Records with an inconclusive call do not appear.

Test system: BDF1 mice, colon carcinoma 38 sc, T/C %
Experiment: NCI In Vivo Anticancer Drug Screen. Data for tumor model Colon Carcinoma 38 (subcutaneous) in B6D2F1 (BDF1) mice
How it was run: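 Ratio of survival or tumor size, compound-treated animals relative to vehicle controls, in tumor-bearing mice.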

[1] = endpoint: median tumor weight (est.), dose: 50.0 mg/kg/injection, schedule: Q07DX002 (ip), vehicle: saline with Tween-80, higher = larger tumour
[2] = endpoint: median tumor weight (est.), dose: 100.0 mg/kg/injection, schedule: Q07DX002 (ip), vehicle: saline with Tween-80, higher = larger tumour
[3] = endpoint: median tumor weight (est.), dose: 200.0 mg/kg/injection, schedule: Q07DX002 (ip), vehicle: saline with Tween-80, higher = larger tumour
[4] = endpoint: median tumor weight (est.), dose: 200.0 mg/kg/injection, schedule: Q07DX002 (ip), vehicle: saline, higher = larger tumour

SMILES: O=C(CN1CCOCC1)Nc1nc(-c2ccc(Cl)cc2)cs1
- T/C (endpoint: median tumor weight (est.), dose: 50.0 mg/kg/injection, schedule: Q07DX002 (ip), vehicle: DMSO, higher = larger tumour): 224 % of control
- T/C (endpoint: median tumor weight (est.), dose: 100.0 mg/kg/injection, schedule: Q07DX002 (ip), vehicle: DMSO, higher = larger tumour): 292 % of control
- T/C (endpoint: median tumor weight (est.), dose: 200.0 mg/kg/injection, schedule: Q07DX002 (ip), vehicle: DMSO, higher = larger tumour): 247 % of control
- T/C (endpoint: median tumor weight (est.), dose: 400.0 mg/kg/injection, schedule: Q07DX002 (ip), vehicle: DMSO, higher = larger tumour): 234 % of control

SMILES: CCCCCCCCCCCCCCCCCCCCCC(=O)Nc1ccn(C2OC(CO)C(O)C2O)c(=O)n1 (stereo unspecified)
- T/C (endpoint: median tumor weight (est.), dose: 12.5 mg/kg/injection, schedule: Q07DX002 (ip), vehicle: saline, higher = larger tumour): 80 % of control
- T/C (endpoint: median tumor weight (est.), dose: 25.0 mg/kg/injection, schedule: Q07DX002 (ip), vehicle: saline with Tween-80, higher = larger tumour): 151 % of control
- T/C (endpoint: median tumor weight (est.), dose: 25.0 mg/kg/injection, schedule: Q07DX002 (ip), vehicle: saline, higher = larger tumour): 119 % of control and 105 % of control
- T/C [1]: 172 % of control
- T/C [2]: 82 % of control
- T/C (endpoint: median tumor weight (est.), dose: 100.0 mg/kg/injection, schedule: Q07DX002 (ip), vehicle: saline, higher = larger tumour): 52 % of control and 65 % of control
- T/C [3]: 92 % of control
- T/C [4]: 52 % of control
- T/C (endpoint: median tumor weight (est.), dose: 400.0 mg/kg/injection, schedule: Q07DX002 (ip), vehicle: saline with Tween-80, higher = larger tumour): 10 % of control
- T/C (endpoint: median tumor weight (est.), dose: 400.0 mg/kg/injection, schedule: Q07DX002 (ip), vehicle: saline, higher = larger tumour): 29 % of control

SMILES: CC1(C)CC2(C)OC2C2(C1)N=NC(=Nc1ccccc1)O2 (stereo unspecified)
- T/C [1]: 119 % of control
- T/C [2]: 101 % of control
- T/C [3]: 213 % of control

SMILES: O=c1[nH]cc(F)c(=O)[nH]1
- T/C (endpoint: median survival time, dose: 16.2 mg/kg/injection, schedule: Q04DX002 (ip), vehicle: saline, higher = longer survival): 119 % of control
- T/C (endpoint: median survival time, dose: 21.1 mg/kg/injection, schedule: Q01DX010 (ip), vehicle: saline, higher = longer survival): 199 % of control
- T/C (endpoint: median survival time, dose: 34.0 mg/kg/injection, schedule: Q01DX010 (ip), vehicle: saline, higher = longer survival): 199 % of control
- T/C (endpoint: median survival time, dose: 36.0 mg/kg/injection, schedule: Q04DX003 (ip), vehicle: saline, higher = longer survival): 119 % of control
- T/C (endpoint: median survival time, dose: 42.0 mg/kg/injection, schedule: Q04DX004 (ip), vehicle: saline, higher = longer survival): 122 % of control
- T/C (endpoint: median survival time, dose: 60.0 mg/kg/injection, schedule: Q04DX004 (ip), vehicle: alkali diluted with saline, higher = longer survival): 197 % of control and 204 % of control
- T/C (endpoint: median survival time, dose: 73.0 mg/kg/injection, schedule: Q07DX003 (iv), vehicle: saline, higher = longer survival): 124 % of control
- T/C (endpoint: median survival time, dose: 75.0 mg/kg/injection, schedule: Q04DX002 (ip), vehicle: saline, higher = longer survival): 233 % of control
- T/C (endpoint: median survival time, dose: 100.0 mg/kg/injection, schedule: Q04DX004 (ip), vehicle: alkali diluted with saline, higher = longer survival): 72 % of control
- T/C (endpoint: median survival time, dose: 167.0 mg/kg/injection, schedule: Q04DX004 (ip), vehicle: alkali diluted with saline, higher = longer survival): 57 % of control
- T/C (endpoint: median tumor weight (est.), dose: 21.6 mg/kg/injection, schedule: Q04DX004 (ip), vehicle: saline, higher = larger tumour): 65 % of control
- T/C (endpoint: median tumor weight (est.), dose: 36.0 mg/kg/injection, schedule: Q04DX004 (ip), vehicle: saline, higher = larger tumour): 38 % of control

SMILES: C=C(OP(=O)(OC)OC)Sc1ccccc1C
- T/C (endpoint: median tumor weight (est.), dose: 0.18 mg/kg/injection, schedule: Q07DX002 (ip), vehicle: Klucel (hydroxypropylcellulose) (HPC), higher = larger tumour): 112 % of control
- T/C (endpoint: median tumor weight (est.), dose: 0.37 mg/kg/injection, schedule: Q07DX002 (ip), vehicle: Klucel (hydroxypropylcellulose) (HPC), higher = larger tumour): 59 % of control
- T/C (endpoint: median tumor weight (est.), dose: 0.75 mg/kg/injection, schedule: Q07DX002 (ip), vehicle: Klucel (hydroxypropylcellulose) (HPC), higher = larger tumour): 101 % of control
- T/C (endpoint: median tumor weight (est.), dose: 1.5 mg/kg/injection, schedule: Q07DX002 (ip), vehicle: Klucel (hydroxypropylcellulose) (HPC), higher = larger tumour): 100 % of control
- T/C (endpoint: median tumor weight (est.), dose: 1.56 mg/kg/injection, schedule: Q07DX002 (ip), vehicle: Klucel (hydroxypropylcellulose) (HPC), higher = larger tumour): 122 % of control

SMILES: O=C(O)CP(=O)(O)O
- T/C [4]: 115 % of control and 96 % of control
- T/C (endpoint: median tumor weight (est.), dose: 800.0 mg/kg/injection, schedule: Q07DX002 (ip), vehicle: saline, higher = larger tumour): 78 % of control and 80 % of control
- T/C (endpoint: median tumor weight (est.), dose: 1600.0 mg/kg/injection, schedule: Q07DX002 (ip), vehicle: saline, higher = larger tumour): 59 % of control

SMILES: CCCC(=O)OC1C=C2N3C(=O)C4CC56C(=CC(OC(C)=O)C7OC75)N4C(=O)C3CC26C2OC12 (stereo unspecified)
- T/C (endpoint: median tumor weight (est.), dose: 1.25 mg/kg/injection, schedule: Q07DX002 (ip), vehicle: Klucel (hydroxypropylcellulose) (HPC), higher = larger tumour): 111 % of control
- T/C (endpoint: median tumor weight (est.), dose: 2.5 mg/kg/injection, schedule: Q07DX002 (ip), vehicle: Klucel (hydroxypropylcellulose) (HPC), higher = larger tumour): 92 % of control
- T/C (endpoint: median tumor weight (est.), dose: 5.0 mg/kg/injection, schedule: Q07DX002 (ip), vehicle: Klucel (hydroxypropylcellulose) (HPC), higher = larger tumour): 102 % of control
- T/C (endpoint: median tumor weight (est.), dose: 10.0 mg/kg/injection, schedule: Q07DX002 (ip), vehicle: Klucel (hydroxypropylcellulose) (HPC), higher = larger tumour): 76 % of control
